Laboratory results: ChEMBL document CHEMBL1154996, “Inhibitors of dipeptidyl peptidase 8 and dipeptidyl peptidase 9. Part 2: isoindoline containing inhibitors” (Bioorg Med Chem Lett, 2008)
The source made the active and inactive calls. The rule behind the calls is not given here.

Columns and labels:
Dipeptidyl peptidase 4 = Dipeptidyl peptidase 4 (Homo sapiens, UniProt P27487); assay: Inhibition of DPP4
Dipeptidyl peptidase 2 = Dipeptidyl peptidase 2 (Homo sapiens, UniProt Q9UHL4); assay: Inhibition of DPP2
Dipeptidyl peptidase 9 = Dipeptidyl peptidase 9 (Homo sapiens, UniProt Q86TI2); assay: Inhibition of DPP9
Dipeptidyl peptidase 8 = Dipeptidyl peptidase 8 (Homo sapiens, UniProt Q6V1X1); assay: Inhibition of DPP8
Sequence of Dipeptidyl peptidase 8 (Q6V1X1 whole entry): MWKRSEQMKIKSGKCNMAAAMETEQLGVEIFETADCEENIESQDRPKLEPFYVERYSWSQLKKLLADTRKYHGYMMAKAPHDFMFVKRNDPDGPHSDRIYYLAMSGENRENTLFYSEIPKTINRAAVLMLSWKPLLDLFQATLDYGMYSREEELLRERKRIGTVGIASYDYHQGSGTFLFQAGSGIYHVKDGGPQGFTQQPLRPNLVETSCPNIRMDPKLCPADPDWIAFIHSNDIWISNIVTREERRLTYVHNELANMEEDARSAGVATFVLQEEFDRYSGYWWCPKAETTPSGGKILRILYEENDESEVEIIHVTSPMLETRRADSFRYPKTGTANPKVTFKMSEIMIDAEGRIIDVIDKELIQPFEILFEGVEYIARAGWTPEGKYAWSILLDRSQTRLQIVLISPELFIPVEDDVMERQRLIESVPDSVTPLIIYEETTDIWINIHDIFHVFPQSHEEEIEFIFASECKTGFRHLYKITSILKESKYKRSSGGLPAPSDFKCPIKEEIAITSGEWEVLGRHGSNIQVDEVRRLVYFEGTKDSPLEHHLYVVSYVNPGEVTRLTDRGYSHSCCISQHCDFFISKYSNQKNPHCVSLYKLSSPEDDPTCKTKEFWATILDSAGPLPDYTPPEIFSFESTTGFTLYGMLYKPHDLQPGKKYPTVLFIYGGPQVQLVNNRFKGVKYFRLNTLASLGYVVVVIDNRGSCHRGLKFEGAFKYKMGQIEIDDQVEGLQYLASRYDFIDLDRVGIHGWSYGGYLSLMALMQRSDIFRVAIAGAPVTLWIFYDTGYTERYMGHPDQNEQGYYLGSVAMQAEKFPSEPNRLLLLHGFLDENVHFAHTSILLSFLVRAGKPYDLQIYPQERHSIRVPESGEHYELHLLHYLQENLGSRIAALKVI

Sequence of Dipeptidyl peptidase 9 (Q86TI2 whole entry): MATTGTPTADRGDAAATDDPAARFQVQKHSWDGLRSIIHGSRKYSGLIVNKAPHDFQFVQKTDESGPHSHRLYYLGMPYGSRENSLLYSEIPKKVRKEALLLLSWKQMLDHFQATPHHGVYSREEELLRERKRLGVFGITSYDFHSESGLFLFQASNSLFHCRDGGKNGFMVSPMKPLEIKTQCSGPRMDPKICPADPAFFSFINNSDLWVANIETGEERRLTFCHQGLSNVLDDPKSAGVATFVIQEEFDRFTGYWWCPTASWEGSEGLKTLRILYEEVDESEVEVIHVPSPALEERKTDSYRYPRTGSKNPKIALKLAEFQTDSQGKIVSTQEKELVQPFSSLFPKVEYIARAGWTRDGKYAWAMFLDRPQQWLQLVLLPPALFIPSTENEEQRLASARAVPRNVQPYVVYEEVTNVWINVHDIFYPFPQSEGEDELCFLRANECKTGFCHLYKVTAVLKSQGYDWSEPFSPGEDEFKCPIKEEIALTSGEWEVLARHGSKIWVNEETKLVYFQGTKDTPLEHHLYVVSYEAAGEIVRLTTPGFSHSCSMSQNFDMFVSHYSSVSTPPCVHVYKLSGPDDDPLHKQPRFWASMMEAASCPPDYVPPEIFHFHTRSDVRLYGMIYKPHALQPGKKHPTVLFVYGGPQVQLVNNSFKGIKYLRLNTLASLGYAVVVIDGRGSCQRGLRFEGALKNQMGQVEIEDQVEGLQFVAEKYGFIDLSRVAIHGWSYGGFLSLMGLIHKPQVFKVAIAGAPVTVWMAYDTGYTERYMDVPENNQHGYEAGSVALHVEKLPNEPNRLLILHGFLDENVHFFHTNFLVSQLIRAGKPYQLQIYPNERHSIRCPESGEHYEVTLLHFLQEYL

Compound	IC50 (Dipeptidyl peptidase 4) [µM]	IC50 (Dipeptidyl peptidase 2) [µM]	IC50 (Dipeptidyl peptidase 9) [µM]	IC50 (Dipeptidyl peptidase 8) [µM]	Activity (Dipeptidyl peptidase 4)
N[C@@H](CCCCNCc1ccccc1)C(=O)N1Cc2ccccc2C1	> 50				
O=C([C@@H]1C[C@@H](N(Cc2ccccc2)Cc2ccccc2)CN1)N1Cc2ccccc2C1	> 500	4.5	> 25		
CC[C@H](C)[C@H](N)C(=O)N1Cc2cccc(C)c2C1	> 100	> 100	> 100	> 100	
CC[C@@H](C)[C@H](N)C(=O)N1Cc2ccc(C(F)(F)F)cc2C1	> 100	12.6	> 100	> 100	
N[C@@H](CCCCN(Cc1ccccc1)Cc1ccccc1)C(=O)N1Cc2ccccc2C1	> 62.5				
CC[C@H](C)[C@H](N)C(=O)N1Cc2ccc(Br)cc2C1	> 100				
CC[C@H](C)[C@H](N)C(=O)N1Cc2ccc(C(F)(F)F)cc2C1	> 100	13	> 100	> 100	
CC[C@H](C)[C@H](N)C(=O)N1Cc2ccc(N=[N+]=[N-])cc2C1	> 100	> 50		> 100	
O=C([C@@H]1C[C@@H](Nc2ccc3ccccc3c2)CN1)N1Cc2ccccc2C1	> 250				
N[C@@H](CCCCN(c1ccc2ccccc2c1)c1ccc2ccccc2c1)C(=O)N1Cc2ccccc2C1	> 31.2				
O=C([C@@H]1C[C@H](N(c2ccc3ccccc3c2)c2ccc3ccccc3c2)CN1)N1Cc2ccccc2C1		> 100			
O=C([C@@H]1C[C@H](Nc2ccc3ccccc3c2)CN1)N1Cc2ccccc2C1	> 100				
O=C([C@@H]1C[C@@H](NCc2ccccc2)CN1)N1Cc2ccccc2C1	> 1000				
N[C@@H](CCCCNC(=O)OCc1ccccc1)C(=O)N1Cc2ccccc2C1	245	2.5			
CC[C@H](C)[C@H](N)C(=O)N1Cc2ccc(C(C)(C)C)cc2C1	> 100	> 100	> 100	> 100	
CC[C@H](C)[C@H](N)C(=O)N1Cc2ccc([N+](=O)[O-])cc2C1	> 50	66	> 25	> 50	
CC[C@H](C)[C@H](N)C(=O)N1Cc2cccc(F)c2C1	> 100				
O=C([C@@H]1C[C@H](N(c2cccc3ccccc23)c2cccc3ccccc23)CN1)N1Cc2ccccc2C1					inactive
CC[C@H](C)[C@H](N)C(=O)N1Cc2ccc(C)cc2C1	> 100				

The next lines start with the values.

IC50 (Dipeptidyl peptidase 4) [µM]	IC50 (Dipeptidyl peptidase 2) [µM]	IC50 (Dipeptidyl peptidase 9) [µM]	IC50 (Dipeptidyl peptidase 8) [µM]	Activity (Dipeptidyl peptidase 4)	Compound
> 250					O=C([C@@H]1C[C@H](NCc2ccccc2)CN1)N1Cc2ccccc2C1
4.97					O=C([C@@H]1C[C@H](Nc2cccc3ccccc23)CN1)N1Cc2ccccc2C1
> 500					N[C@H]1CN[C@H](C(=O)N2Cc3ccccc3C2)C1
161					NCCCC[C@H](N)C(=O)N1Cc2ccccc2C1
> 100	> 100				CC[C@H](C)[C@H](N)C(=O)N1Cc2cccnc2C1
> 100	2.6	> 50	> 25		CC[C@H](C)[C@H](N)C(=O)N1Cc2ccc(I)cc2C1
> 100					CC[C@@H](C)[C@H](N)C(=O)N1Cc2ccc(C)cc2C1
> 100					CC[C@@H](C)[C@H](N)C(=O)N1Cc2cccc(F)c2C1
178					N[C@@H](CCCCNc1ccc2ccccc2c1)C(=O)N1Cc2ccccc2C1
